The source made the active and inactive calls. The rule behind the calls is not given here.
Experiments:
Salmonella typhimurium [1] = assay: Genotoxicity in Salmonella typhimurium TA1535 assessed as number of revertant colonies per plate at 185 ug/plate after 20 mins in presence of S9 fraction by Ames test (reference value: 13); assay type: toxicity, organism-based; settings: salmonella enterica subsp. enterica serovar typhimurium
[2] = Cytotoxicity against CHL cells assessed as chromatid gap at 1650 ug/ml preincubated for 6 hrs followed by 18 hrs incubation in fresh medium in presence of S9 fraction by Giemsa-staining-based microscopic analysis; assay type: toxicity, cell-based, Cricetulus griseus; settings: chinese hamster
Salmonella typhimurium [3] = assay: Genotoxicity in Salmonella typhimurium TA1537 assessed as number of revertant colonies per plate at 185 ug/plate after 20 mins in absence of S9 fraction by Ames test (reference value: 9); assay type: toxicity, organism-based; settings: salmonella enterica subsp. enterica serovar typhimurium
Salmonella typhimurium [4] = assay: Genotoxicity in Salmonella typhimurium TA1535 assessed as number of revertant colonies per plate at 61.7 ug/plate after 20 mins in presence of S9 fraction by Ames test (reference value: 13); assay type: toxicity, organism-based; settings: salmonella enterica subsp. enterica serovar typhimurium
[5] = Cytotoxicity against CHL cells assessed as number of cells with numerical aberrations at 825 ug/ml after 24 hrs by Giemsa staining-based microscopic analysis relative to control; assay type: toxicity, cell-based, Cricetulus griseus; settings: chinese hamster
[6] = Cytotoxicity against CHL cells assessed as chromatid gap at 825 ug/ml preincubated for 6 hrs followed by 18 hrs incubation in fresh medium in absence of S9 fraction by Giemsa-staining-based microscopic analysis; assay type: toxicity, cell-based, Cricetulus griseus; settings: chinese hamster
[7] = Cytotoxicity against CHL cells assessed as growth rate at 3300 ug/ml preincubated for 6 hrs followed by 18 hrs incubation in fresh medium in absence of S9 fraction by MTT assay relative to control; assay type: toxicity, cell-based, Cricetulus griseus; settings: chinese hamster, read-out: Activity
Salmonella typhimurium [8] = assay: Genotoxicity in Salmonella typhimurium TA98 assessed as number of revertant colonies per plate at 5000 ug/plate after 20 mins in presence of S9 fraction by Ames test (reference value: 26); assay type: toxicity, organism-based; settings: salmonella enterica subsp. enterica serovar typhimurium
[9] = Cytotoxicity against CHL cells assessed as chromatid gap at 3300 ug/ml preincubated for 6 hrs followed by 18 hrs incubation in fresh medium in absence of S9 fraction by Giemsa-staining-based microscopic analysis; assay type: toxicity, cell-based, Cricetulus griseus; settings: chinese hamster
Salmonella typhimurium [10] = assay: Genotoxicity in Salmonella typhimurium TA100 assessed as number of revertant colonies per plate at 185 ug/plate after 20 mins in absence of S9 fraction by Ames test (reference value: 123); assay type: toxicity, organism-based; settings: salmonella enterica subsp. enterica serovar typhimurium
Salmonella typhimurium [11] = assay: Genotoxicity in Salmonella typhimurium TA1537 assessed as number of revertant colonies per plate at 1667 ug/plate after 20 mins in absence of S9 fraction by Ames test (reference value: 9); assay type: toxicity, organism-based; settings: salmonella enterica subsp. enterica serovar typhimurium
Salmonella typhimurium [12] = assay: Genotoxicity in Salmonella typhimurium TA100 assessed as number of revertant colonies per plate at 61.7 ug/plate after 20 mins in presence of S9 fraction by Ames test (reference value: 142); assay type: toxicity, organism-based; settings: salmonella enterica subsp. enterica serovar typhimurium
Salmonella typhimurium [13] = assay: Genotoxicity in Salmonella typhimurium TA98 assessed as number of revertant colonies per plate at 1667 ug/plate after 20 mins in absence of S9 fraction by Ames test (reference value: 21); assay type: toxicity, organism-based; settings: salmonella enterica subsp. enterica serovar typhimurium
[14] = Cytotoxicity against CHL cells assessed as growth rate at 2.16 ug/ml preincubated for 6 hrs followed by 18 hrs incubation in fresh medium in presence of S9 fraction by MTT assay relative to control; assay type: toxicity, cell-based, Cricetulus griseus; settings: chinese hamster, read-out: Activity
Salmonella typhimurium [15] = assay: Genotoxicity in Salmonella typhimurium TA100 assessed as number of revertant colonies per plate at 61.7 ug/plate after 20 mins in absence of S9 fraction by Ames test (reference value: 123); assay type: toxicity, organism-based; settings: salmonella enterica subsp. enterica serovar typhimurium
Salmonella typhimurium [16] = assay: Genotoxicity in Salmonella typhimurium TA100 assessed as number of revertant colonies per plate at 185 ug/plate after 20 mins in presence of S9 fraction by Ames test (reference value: 142); assay type: toxicity, organism-based; settings: salmonella enterica subsp. enterica serovar typhimurium
Salmonella typhimurium [17] = assay: Genotoxicity in Salmonella typhimurium TA100 assessed as number of revertant colonies per plate at 20.6 ug/plate after 20 mins in presence of S9 fraction by Ames test (reference value: 142); assay type: toxicity, organism-based; settings: salmonella enterica subsp. enterica serovar typhimurium
Salmonella typhimurium [18] = assay: Genotoxicity in Salmonella typhimurium TA1537 assessed as number of revertant colonies per plate at 556 ug/plate after 20 mins in absence of S9 fraction by Ames test (reference value: 9); assay type: toxicity, organism-based; settings: salmonella enterica subsp. enterica serovar typhimurium
Salmonella typhimurium [19] = assay: Genotoxicity in Salmonella typhimurium TA1537 assessed as number of revertant colonies per plate at 5000 ug/plate after 20 mins in absence of S9 fraction by Ames test (reference value: 9); assay type: toxicity, organism-based; settings: salmonella enterica subsp. enterica serovar typhimurium
[20] = Cytotoxicity against CHL cells assessed as chromatid gap at 1650 ug/ml preincubated for 6 hrs followed by 18 hrs incubation in fresh medium in absence of S9 fraction by Giemsa-staining-based microscopic analysis; assay type: toxicity, cell-based, Cricetulus griseus; settings: chinese hamster
Salmonella typhimurium [21] = assay: Genotoxicity in Salmonella typhimurium TA1537 assessed as number of revertant colonies per plate at 556 ug/plate after 20 mins in presence of S9 fraction by Ames test (reference value: 15); assay type: toxicity, organism-based; settings: salmonella enterica subsp. enterica serovar typhimurium
Escherichia coli [22] = assay: Genotoxicity in Escherichia coli WP2uvrA assessed as number of revertant colonies per plate at 185 ug/plate after 20 mins in absence of S9 fraction by Ames test (reference value: 24); assay type: toxicity; settings: s9, 20 min
Escherichia coli [23] = assay: Genotoxicity in Escherichia coli WP2uvrA assessed as number of revertant colonies per plate at 1667 ug/plate after 20 mins in absence of S9 fraction by Ames test (reference value: 24); assay type: toxicity; settings: s9, 20 min
[24] = Cytotoxicity against CHL cells assessed as chromatid gap at 3300 ug/ml preincubated for 6 hrs followed by 18 hrs incubation in fresh medium in presence of S9 fraction by Giemsa-staining-based microscopic analysis; assay type: toxicity, cell-based, Cricetulus griseus; settings: chinese hamster
Salmonella typhimurium [25] = assay: Genotoxicity in Salmonella typhimurium TA98 assessed as number of revertant colonies per plate at 61.7 ug/plate after 20 mins in absence of S9 fraction by Ames test (reference value: 21); assay type: toxicity, organism-based; settings: salmonella enterica subsp. enterica serovar typhimurium
[26] = Cytotoxicity against CHL cells assessed as growth rate at 13.5 ug/ml after 24 hrs in absence of S9 fraction by MTT assay relative to control; assay type: toxicity, cell-based, Cricetulus griseus; settings: chinese hamster, read-out: Activity
Salmonella typhimurium [27] = assay: Genotoxicity in Salmonella typhimurium TA100 assessed as number of revertant colonies per plate at 5000 ug/plate after 20 mins in presence of S9 fraction by Ames test (reference value: 142); assay type: toxicity, organism-based; settings: salmonella enterica subsp. enterica serovar typhimurium
[28] = test system: Gamma-glutamyltranspeptidase 1 (Homo sapiens); assay: Inhibition of human wild-type N-terminal truncated GGT expressed in baculovirus infected High Five cells at 1 mM using gamma-Glu-PNA as substrate after 1 min by spectrophotometric method; settings: BTI-TN-5B1-4
Salmonella typhimurium [29] = assay: Genotoxicity in Salmonella typhimurium TA98 assessed as number of revertant colonies per plate at […] ug/plate after 20 mins in presence of S9 fraction by Ames test (reference value: 26); assay type: toxicity, organism-based; settings: salmonella enterica subsp. enterica serovar typhimurium
Salmonella typhimurium [30] = assay: Genotoxicity in Salmonella typhimurium TA100 assessed as number of revertant colonies per plate at 556 ug/plate after 20 mins in presence of S9 fraction by Ames test (reference value: 142); assay type: toxicity, organism-based; settings: salmonella enterica subsp. enterica serovar typhimurium
[31] = Cytotoxicity against CHL cells assessed as growth rate at 3300 ug/ml preincubated for 6 hrs followed by 18 hrs incubation in fresh medium in presence of S9 fraction by MTT assay relative to control; assay type: toxicity, cell-based, Cricetulus griseus; settings: chinese hamster, read-out: Activity
Escherichia coli [32] = assay: Genotoxicity in Escherichia coli WP2uvrA assessed as number of revertant colonies per plate at 556 ug/plate after 20 mins in presence of S9 fraction by Ames test (reference value: 26); assay type: toxicity; settings: s9, 20 min

## COP(=O)(CCC(N)C(=O)O)Oc1cccc(CC(=O)O)c1 (configuration not stated)
Salmonella typhimurium [1]
  Activity: 13
[2]
  Activity: 1%
Salmonella typhimurium [3]
  Activity: 12
Salmonella typhimurium [4]
  Activity: 9
[5]
  Activity: 0%
[6]
  Activity: 1%
[7]
  viability at 18 h, 3300 ug/ml: 97.1%
Salmonella typhimurium [8]
  Activity: 27
[9]
  Activity: 0%
Salmonella typhimurium [10]
  Activity: 128
Salmonella typhimurium [11]
  Activity: 10
Salmonella typhimurium [12]
  Activity: 133
Salmonella typhimurium [13]
  Activity: 23
[14]
  viability at 18 h, 2.16 ug/ml: 101%
Salmonella typhimurium [15]
  Activity: 148
Salmonella typhimurium [16]
  Activity: 147
Salmonella typhimurium [17]
  Activity: 139
Salmonella typhimurium [18]
  Activity: 11
Salmonella typhimurium [19]
  Activity: 9
[20]
  Activity: 0%
Salmonella typhimurium [21]
  Activity: 16
Escherichia coli [22]
  Activity: 23
Escherichia coli [23]
  Activity: 29
[24]
  Activity: 0%
Salmonella typhimurium [25]
  Activity: 23
[26]
  viability at 24 h, 13.5 ug/ml: 103%
Salmonella typhimurium [27]
  Activity: 125
[28]
  inhibition: Active
Salmonella typhimurium [29]
  Activity: 25
Salmonella typhimurium [30]
  Activity: 129
[31]
  viability at 18 h, 3300 ug/ml: 96.8%
Escherichia coli [32]
  Activity: 27
